Source: PubChem BioAssay AID2060619 (Molecular Pharmacology Branch, DTP, NCI, 2025)

System: 323965-272-R-J2-PDC complex spheroid viability
Test: Anticancer human tumor 323965-272-R-J2-PDC patient-derived pancreatic carcinoma cell line growth inhibition [CLK]
Settings: for IC50: curve of first compound; for viability, T/C: stronger effect = lower value
Description: A high-throughput screen of multi-cell type tumor spheroids was designed to identify active combinations of […] and targeted small molecules. Complex spheroids include a stromal component modeled by human endothelial cells (HUVEC) and fibroblasts modeled by human mesenchymal stem cells (MSCs). The concentration ranges selected for each drug and investigational agent were based upon clinically achievable concentrations if the clinical Cmax of the agent was known.
Compounds. The drugs and investigational agents: cirtuvivint (SM08502; NSC835563), CC-671 (NSC850746), vemurafenib (NSC761431), tapotoclax (NSC804041), sotorasib (NSC818433), adagrasib (NSC831453), MRTX-1133 (NSC836407), BAY2416964 (NSC825713), copanlisib (NSC816437), inavolisib (NSC800729), abemaciclib (NSC768073), osimertinib (NSC779217), entinostat (NSC756642), eltanexor (KPT-8602, NSC794443), venetoclax (NSC766270), ceralasertib (NSC777638), bortezomib (NSC756655), olaparib (NSC753686), talazoparib (NSC767125), alisertib (NSC759677), peposertib (NSC802822), gemcitabine (NSC613327), 5-fluorouracil (NSC19893), SN-38 (NSC673596), oxaliplatin (NSC266046), paclitaxel (NSC125973), and doxorubicin (NSC123127), were obtained from the National Cancer Institute (NCI) Developmental Therapeutics Program Chemical Repository. The FDA-approved anticancer drug set is available from the Developmental Therapeutics Program at https://dtp.cancer.gov/organization/dscb/obtaining/available plates.htm. […] The stock solutions were prepared in dimethyl sulfoxide (DMSO, Sigma-Aldrich, St. Louis, MO, cat. D2650), except for the platinum complexes which were prepared in saline (Quality Biological, Gaithersburg, MD, cat. 114-055-101), at 800-fold the tested concentration and stored at -70 degrees C prior to their use. All drugs and investigational agents were tested over a range starting from a high concentration at or near the clinical Cmax and decreasing in half-log increments. If the clinical Cmax for an agent had not been determined, the highest concentration tested was 10 microM.
Cell Culture. All cells were maintained in an incubator at 37 degrees C and 5% CO2 with 95% humidity. The PDC lines were cultured according to standard operating procedures established by the NCI PDMR. Briefly, all PDCs were thawed and cultured in Matrigel-coated flasks prepared with a working solution of 1X Ham's F-12 nutrient mix, without supplementation (Invitrogen, Waltham, MA, cat. 11765054), 100 U/mL penicillin-streptomycin (Invitrogen, cat. 15140122), and 2.5% Matrigel (Corning Inc., Corning, NY, cat. 354248) for the first three passages. The 947758-054-R-J2-PDC line was cultured in 6B/Colon 1A media, which includes advanced DMEM/F-12 (Thermo Fisher Scientific, cat. 12634028), 10 mM HEPES (Thermo Fisher Scientific, cat. 15630080), 1X GlutaMAX supplement (Thermo Fisher Scientific, cat. 35050061), 0.1 mg/mL primocin (InvivoGen, cat. ant-pm-2), 10% defined fetal bovine serum, heat inactivated (HyClone Laboratories Inc., cat. SH30070.03HI), 1.25 mM N-Acetyl-L-cysteine (Sigma-Aldrich, cat. A9165), 10 mM nicotinamide (Sigma-Aldrich, cat. N0636), 1X B-27 supplement (Thermo Fisher Scientific, cat. 17504044), 1X N-2 supplement (Thermo Fisher Scientific, cat. 17502048), and 10 microM Y-27632 dihydrochloride (Tocris Bioscience, cat. 1254). The 876862-298-R-J1-PDC was cultured in 6E media, which includes all 6B/Colon 1A media components plus 50% L-WRN conditioned media (ATCC, cat. CRL-3276), 50 ng/mL recombinant human EGF recombinant protein (hEGF; Thermo Fisher Scientific, cat. PHG0311), 10 ng/mL recombinant human fibroblast growth factor 10 (hGFG-10; PeproTech, cat. 100-26), 1 ng/mL recombinant human fibroblast growth factor 2 (hFGF-2; PeproTech, cat. 100-18B), and 1 µM prostaglandin E2 (PGE2; Tocris, cat. 2296). The 227483-062-R1-J1-PDC line was cultured in Panc media, containing all 6E components except hFGF-2, with the addition of 500 nM SB-431542 (Selleckchem, cat. S1067) and 10 nM gastrin (Tocris, cat. 3006). […]

[1] = second compound 0.0316 µM, first compound 0.0316 µM
[2] = second compound 0.0316 µM, first compound 0.1 µM
[3] = second compound 0.0316 µM, first compound 0.316 µM
[4] = second compound 0.0316 µM, first compound 1 µM
[5] = second compound 0.0316 µM, first compound 3.16 µM
[6] = second compound 0.0316 µM, first compound 10 µM
[7] = second compound 0.1 µM, first compound 0.0316 µM
[8] = second compound 0.1 µM, first compound 0.1 µM
[9] = second compound 0.1 µM, first compound 0.316 µM
[10] = second compound 0.1 µM, first compound 1 µM
[11] = second compound 0.1 µM, first compound 3.16 µM
[12] = second compound 0.1 µM, first compound 10 µM
[13] = second compound 0.316 µM, first compound 0.0316 µM
[14] = second compound 0.316 µM, first compound 0.1 µM
[15] = second compound 0.316 µM, first compound 0.316 µM
[16] = second compound 0.316 µM, first compound 1 µM
[17] = second compound 0.316 µM, first compound 3.16 µM
[18] = second compound 0.316 µM, first compound 10 µM
[19] = second compound 1 µM, first compound 0.0316 µM
[20] = second compound 1 µM, first compound 0.1 µM
[21] = second compound 1 µM, first compound 0.316 µM
[22] = second compound 1 µM, first compound 1 µM
[23] = second compound 1 µM, first compound 3.16 µM
[24] = second compound 1 µM, first compound 10 µM
[25] = second compound 3.16 µM, first compound 0.0316 µM
[26] = second compound 3.16 µM, first compound 0.1 µM
[27] = second compound 3.16 µM, first compound 0.316 µM
[28] = second compound 3.16 µM, first compound 1 µM
[29] = second compound 3.16 µM, first compound 3.16 µM
[30] = second compound 3.16 µM, first compound 10 µM
[31] = second compound 10 µM, first compound 0.0316 µM
[32] = second compound 10 µM, first compound 0.1 µM
[33] = second compound 10 µM, first compound 0.316 µM
[34] = second compound 10 µM, first compound 1 µM
[35] = second compound 10 µM, first compound 3.16 µM
[36] = second compound 10 µM, first compound 10 µM
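Also: spheroids exposed to agents for seven days before readout.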
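For viability, T/C in this document: percent of DMSO vehicle control wells so 100% = untreated growth.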

For `Nc1ccccc1NC(=O)c1ccc(CNC(=O)OCc2cccnc2)cc1` + CN1CCN(c2cc(C(=O)Nc3cc4cc(-c5cnn(C)c5)ccc4cn3)ccn2)CC1, the IC50 (second compound 0.0316 µM) was 6960 nM, the IC50 (second compound 0.1 µM) was 3000 nM and the IC50 (second compound 0.316 µM) was less than 31.6 nM. It also gave an IC50 (second compound 1 µM) of less than 31.6 nM, an IC50 (second compound 3.16 µM) of less than 31.6 nM and an IC50 (second compound 10 µM) of less than 31.6 nM. For the same molecule, the viability, T/C [1] was 92.1%, the viability, T/C [2] was 92.3% and the viability, T/C [3] was 93.6%. It also gave a viability, T/C [4] of 99%, a viability, T/C [5] of 63.5% and a viability, T/C [6] of 43.8%. The viability, T/C [7] was 79%, the viability, T/C [8] was 75.9% and the viability, T/C [9] was 80%. For the same molecule, the viability, T/C [10] was 78.7%, the viability, T/C [11] was 48.6% and the viability, T/C [12] was 30.6%. The viability, T/C [13] was 26.4%, the viability, T/C [14] was 24.6% and the viability, T/C [15] was 21.4%. For the same molecule, the viability, T/C [16] was 21.8%, the viability, T/C [17] was 17.1% and the viability, T/C [18] was 16.8%. For the same molecule, the viability, T/C [19] was 3.43%, the viability, T/C [20] was 3.41% and the viability, T/C [21] was 4.13%. For the same molecule, the viability, T/C [22] was 2.18%, the viability, T/C [23] was 2.06% and the viability, T/C [24] was 0.81%. For the same molecule, the viability, T/C [25] was 3.66%, the viability, T/C [26] was 5.59% and the viability, T/C [27] was 6.21%. For the same molecule, the viability, T/C [28] was 4.43%, the viability, T/C [29] was 2.9% and the viability, T/C [30] was 3.42%. It also gave a viability, T/C [31] of 3.69%, a viability, T/C [32] of 4.56% and a viability, T/C [33] of 5.4%. For the same molecule, the viability, T/C [34] was 4.41%, the viability, T/C [35] was 4.37% and the viability, T/C [36] was 2.69%.
`CC(CO)NC(=O)c1cc(-c2ccc(Cl)cc2)nn(-c2cnn(C)c2)c1=O` (centres undefined) + CN1CCN(c2cc(C(=O)Nc3cc4cc(-c5cnn(C)c5)ccc4cn3)ccn2)CC1 gave an IC50 (second compound 0.0316 µM) greater than 10000 nM, an IC50 (second compound 0.1 µM) greater than 10000 nM and an IC50 (second compound 0.316 µM) of less than 31.6 nM. It also gave an IC50 (second compound 1 µM) of less than 31.6 nM, an IC50 (second compound 3.16 µM) of less than 31.6 nM and an IC50 (second compound 10 µM) of less than 31.6 nM. For the same molecule, the viability, T/C [1] was 97.3%, the viability, T/C [2] was 102% and the viability, T/C [3] was 103%. For the same molecule, the viability, T/C [4] was 87.4%, the viability, T/C [5] was 112% and the viability, T/C [6] was 113%. For the same molecule, the viability, T/C [7] was 68%, the viability, T/C [8] was 80.5% and the viability, T/C [9] was 83.1%. It also gave a viability, T/C [10] of 72.5%, a viability, T/C [11] of 76% and a viability, T/C [12] of 89.5%. It also gave a viability, T/C [13] of 25.8%, a viability, T/C [14] of 27.2% and a viability, T/C [15] of 25%. The viability, T/C [16] was 22.3%, the viability, T/C [17] was 28.2% and the viability, T/C [18] was 32.8%. The viability, T/C [19] was 3.75%, the viability, T/C [20] was 3.59% and the viability, T/C [21] was 4.21%. The viability, T/C [22] was 3.61%, the viability, T/C [23] was 3.03% and the viability, T/C [24] was 3.2%. It also gave a viability, T/C [25] of 4.17%, a viability, T/C [26] of 3.62% and a viability, T/C [27] of 3.4%. The viability, T/C [28] was 3.82%, the viability, T/C [29] was 4.87% and the viability, T/C [30] was 4.3%. It also gave a viability, T/C [31] of 4.55%, a viability, T/C [32] of 5.29% and a viability, T/C [33] of 4.22%. The viability, T/C [34] was 3.24%, the viability, T/C [35] was 3.64% and the viability, T/C [36] was 3.17%.
